Assay results as given in PubChem BioAssay (NCI).
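Briefly, cells in 96-well plates were exposed to five compound concentrations for 48 h, and endpoints were estimated by linear interpolation. TGI is the concentration that stops growth completely.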

Assays:
Assay in all cases: NCI tumour cell line growth inhibition, 48 h
[1] = tested on: 786-0 renal
[2] = tested on: A498 renal
[3] = tested on: A549 NSCLC
[4] = tested on: ACHN renal
[5] = tested on: CAKI-1 renal
[6] = tested on: CCRF-CEM leukemia
[7] = tested on: COLO 205 colon
[8] = tested on: DU-145 prostate
[9] = tested on: EKVX NSCLC
[10] = tested on: HCC-2998 colon
[11] = tested on: HCT-116 colon
[12] = tested on: HCT-15 colon
[13] = tested on: HL-60(TB) leukemia
[14] = tested on: HOP-62 NSCLC
[15] = tested on: HOP-92 NSCLC
[16] = tested on: HS 578T breast
[17] = tested on: HT29 colon
[18] = tested on: IGROV1 ovarian
[19] = tested on: K-562 leukemia
[20] = tested on: KM12 colon
[21] = tested on: LOX IMVI melanoma
[22] = tested on: M14 melanoma
[23] = tested on: MALME-3M melanoma
[24] = tested on: MCF7 breast
[25] = tested on: MDA-MB-231 breast
[26] = tested on: MDA-MB-435
[27] = tested on: MDA-N
[28] = tested on: MOLT-4 leukemia
[29] = tested on: NCI-H226 lung
[30] = tested on: NCI-H23 lung
[31] = tested on: NCI-H460 lung
[32] = tested on: NCI-H522 lung
[33] = tested on: NCI/ADR-RES ovarian
[34] = tested on: OVCAR-3 ovarian
[35] = tested on: OVCAR-4 ovarian
[36] = tested on: OVCAR-5 ovarian
[37] = tested on: OVCAR-8 ovarian
[38] = tested on: PC-3 prostate
[39] = tested on: RPMI-8226 leukemia
[40] = tested on: RXF 393 renal
[41] = tested on: SF-268 CNS
[42] = tested on: SF-295 CNS
[43] = tested on: SF-539 CNS
[44] = tested on: SK-MEL-2 melanoma
[45] = tested on: SK-MEL-28 melanoma
[46] = tested on: SK-MEL-5 melanoma
[47] = tested on: SK-OV-3 ovarian
[48] = tested on: SN12C renal
[49] = tested on: SNB-19 CNS
[50] = tested on: SNB-75 CNS
[51] = tested on: SR leukemia
[52] = tested on: SW-620 colon
[53] = tested on: T-47D breast
[54] = tested on: TK-10 renal
[55] = tested on: U251 CNS
[56] = tested on: UACC-257 melanoma
[57] = tested on: UO-31 renal
[58] = tested on: BT-549 breast
[59] = tested on: UACC-62 melanoma

In the case of `COC(=O)c1c2c(cc3c1CC1(Cc4ccccc4C1=O)C3)CCC2` (centres undefined), the TGI [1] is reported as > 100 µM, the TGI [2] is reported as > 100 µM and the TGI [3] is reported as > 100 µM. For the same compound, the TGI [4] was > 100 µM, the TGI [5] was > 100 µM and the TGI [6] was > 100 µM. The TGI [7] was 23.4 µM, the TGI [8] was > 100 µM and the TGI [9] was > 100 µM. For the same compound, the TGI [10] was > 100 µM, the TGI [11] was > 100 µM and the TGI [12] was > 100 µM. For the same compound, the TGI [13] was 53.1 µM, the TGI [14] was > 100 µM and the TGI [15] was > 100 µM. For the same compound, the TGI [16] was > 100 µM, the TGI [17] was 96.9 µM and the TGI [18] was > 100 µM. For the same compound, the TGI [19] was > 100 µM, the TGI [20] was 61.5 µM and the TGI [21] was > 100 µM. The TGI [22] was > 100 µM, the TGI [23] was 79.9 µM and the TGI [24] was > 100 µM. The TGI [25] was > 100 µM, the TGI [26] was 40.3 µM and the TGI [27] was 34.2 µM. The TGI [28] was 47.4 µM, the TGI [29] was 44.2 µM and the TGI [30] was > 100 µM. For the same compound, the TGI [31] was > 100 µM, the TGI [32] was > 100 µM and the TGI [33] was 79.3 µM. For the same compound, the TGI [34] was > 100 µM, the TGI [35] was > 100 µM and the TGI [36] was > 100 µM. For the same compound, the TGI [37] was > 100 µM, the TGI [38] was > 100 µM and the TGI [39] was 99.8 µM. For the same compound, the TGI [40] was 98.4 µM, the TGI [41] was > 100 µM and the TGI [42] was > 100 µM. The TGI [43] was > 100 µM, the TGI [44] was > 100 µM and the TGI [45] was > 100 µM. The TGI [46] was 29.5 µM, the TGI [47] was > 100 µM and the TGI [48] was > 100 µM. For the same compound, the TGI [49] was > 100 µM, the TGI [50] was > 100 µM and the TGI [51] was 58.5 µM. The TGI [52] was > 100 µM, the TGI [53] was > 100 µM and the TGI [54] was > 100 µM. The TGI [55] was > 100 µM, the TGI [56] was > 100 µM and the TGI [57] was > 100 µM.

With `COc1cccc2c1OC1c3ccccc3OCC1C2` (centres undefined) the TGI [1] was > 100 µM, the TGI [2] was > 100 µM and the TGI [3] was > 100 µM. For the same compound, the TGI [58] was > 100 µM, the TGI [5] was > 100 µM and the TGI [6] was > 100 µM. For the same compound, the TGI [7] was > 100 µM, the TGI [8] was > 100 µM and the TGI [9] was > 100 µM. For the same compound, the TGI [10] was > 100 µM, the TGI [11] was > 100 µM and the TGI [12] was > 100 µM. For the same compound, the TGI [14] was > 100 µM, the TGI [17] was > 100 µM and the TGI [18] was > 100 µM. The TGI [19] was > 100 µM, the TGI [20] was > 100 µM and the TGI [21] was > 100 µM. The TGI [22] was > 100 µM, the TGI [23] was > 100 µM and the TGI [24] was > 100 µM. For the same compound, the TGI [25] was > 100 µM, the TGI [26] was > 100 µM and the TGI [27] was > 100 µM. For the same compound, the TGI [28] was > 100 µM, the TGI [29] was > 100 µM and the TGI [30] was > 100 µM. For the same compound, the TGI [33] was > 100 µM, the TGI [34] was > 100 µM and the TGI [36] was > 100 µM. The TGI [37] was > 100 µM, the TGI [38] was > 100 µM and the TGI [39] was > 100 µM. The TGI [41] was > 100 µM, the TGI [42] was > 100 µM and the TGI [43] was > 100 µM. The TGI [44] was > 100 µM, the TGI [46] was > 100 µM and the TGI [47] was > 100 µM. For the same compound, the TGI [48] was > 100 µM, the TGI [50] was 20.6 µM and the TGI [51] was > 100 µM. For the same compound, the TGI [52] was > 100 µM, the TGI [53] was > 100 µM and the TGI [54] was > 100 µM. For the same compound, the TGI [55] was > 100 µM, the TGI [56] was > 100 µM and the TGI [59] was > 100 µM. For the same compound, the TGI [57] was > 100 µM.

With `Cc1ccc(S(=O)(=O)c2scc(-c3ccccc3)c2C)cc1` the TGI [1] was > 100 µM, the TGI [3] was > 100 µM and the TGI [4] was > 100 µM. For the same compound, the TGI [58] was > 100 µM, the TGI [5] was > 100 µM and the TGI [7] was > 100 µM. For the same compound, the TGI [8] was > 100 µM, the TGI [9] was > 100 µM and the TGI [10] was > 100 µM. For the same compound, the TGI [11] was > 100 µM, the TGI [12] was > 100 µM and the TGI [13] was > 100 µM. For the same compound, the TGI [14] was > 100 µM, the TGI [15] was > 100 µM and the TGI [16] was > 100 µM. For the same compound, the TGI [17] was > 100 µM, the TGI [18] was > 100 µM and the TGI [19] was > 100 µM. The TGI [20] was > 100 µM, the TGI [21] was > 100 µM and the TGI [22] was > 100 µM. The TGI [23] was > 100 µM, the TGI [24] was > 100 µM and the TGI [25] was > 100 µM. The TGI [26] was > 100 µM, the TGI [27] was > 100 µM and the TGI [28] was > 100 µM. The TGI [29] was > 100 µM, the TGI [30] was > 100 µM and the TGI [31] was > 100 µM. The TGI [32] was > 100 µM, the TGI [33] was > 100 µM and the TGI [34] was > 100 µM. For the same compound, the TGI [35] was > 100 µM, the TGI [37] was > 100 µM and the TGI [38] was > 100 µM. For the same compound, the TGI [39] was > 100 µM, the TGI [40] was > 100 µM and the TGI [41] was > 100 µM. The TGI [42] was > 100 µM, the TGI [43] was > 100 µM and the TGI [44] was > 100 µM. The TGI [45] was > 100 µM, the TGI [46] was > 100 µM and the TGI [47] was > 100 µM. For the same compound, the TGI [48] was > 100 µM, the TGI [49] was > 100 µM and the TGI [50] was > 100 µM. For the same compound, the TGI [52] was > 100 µM, the TGI [53] was > 100 µM and the TGI [54] was > 100 µM. The TGI [55] was > 100 µM, the TGI [56] was > 100 µM and the TGI [59] was > 100 µM. For the same compound, the TGI [57] was > 100 µM.

In the case of `O=C(COc1ccc(OCC(=O)N2C(=O)CC(=O)N(c3ccccc3)C2=S)cc1)N1C(=O)CC(=O)N(c2ccccc2)C1=S`, the TGI [1] is reported as > 100 µM, the TGI [2] is reported as > 100 µM and the TGI [3] is reported as > 100 µM. For the same compound, the TGI [4] was > 100 µM, the TGI [58] was > 100 µM and the TGI [5] was > 100 µM. For the same compound, the TGI [7] was > 100 µM, the TGI [8] was > 100 µM and the TGI [9] was > 100 µM. For the same compound, the TGI [10] was > 100 µM, the TGI [11] was 60.1 µM and the TGI [12] was > 100 µM. The TGI [15] was > 100 µM, the TGI [17] was > 100 µM and the TGI [18] was > 100 µM. For the same compound, the TGI [19] was > 100 µM, the TGI [20] was > 100 µM and the TGI [22] was > 100 µM. For the same compound, the TGI [23] was > 100 µM, the TGI [24] was > 100 µM and the TGI [25] was > 100 µM. The TGI [26] was > 100 µM, the TGI [27] was > 100 µM and the TGI [28] was > 100 µM. For the same compound, the TGI [29] was > 100 µM, the TGI [30] was > 100 µM and the TGI [31] was > 100 µM. The TGI [32] was > 100 µM, the TGI [33] was > 100 µM and the TGI [35] was > 100 µM. The TGI [36] was > 100 µM, the TGI [38] was > 100 µM and the TGI [39] was > 100 µM. For the same compound, the TGI [40] was 95 µM, the TGI [41] was > 100 µM and the TGI [42] was > 100 µM. For the same compound, the TGI [44] was > 100 µM, the TGI [45] was > 100 µM and the TGI [47] was > 100 µM. The TGI [48] was > 100 µM, the TGI [49] was > 100 µM and the TGI [50] was > 100 µM. The TGI [52] was > 100 µM, the TGI [54] was > 100 µM and the TGI [55] was > 100 µM. The TGI [56] was > 100 µM, the TGI [59] was > 100 µM and the TGI [57] was > 100 µM.
